Test results: patent US5589568A (priority 1994, dated 1996)
Like-named read-outs stand apart in the source and are kept apart here. Where a SMILES comes first, the peptide text is derived from it. Where no end group is shown, it is not given here. The star is where a group is joined. Dodecyl = CCCCCCCCCCCC*; X1 = CCCCCCCCCCCCCCCC*

Legend:
[1] = target: T1, Go (Bos taurus, UniProt P08239); assay: steady state GTPase activity of Go in phospholipid vesicles; format: biochemical, bovine; conditions: for GTPase Go 10 μM: 10 μM peptide; for GTPase Go 10 μM / GTPase Go 100 μM / Turnover number Go 10 μg/ml / Turnover number Go 100 μg/ml: 15 min at 20° C.; for GTPase Go 10 μM / GTPase Go 100 μM / Turnover number Go 10 μg/ml: PE/PC/PS vesicles; for GTPase Go 100 μM: 100 μM peptide; for ability to activate Gi and Go (in words): both Gi and Go, gramicidin S and dynorphin at 10 μM; for Goo ef. (apparent efficacy, maximum turnover number of GTPase activity): Table IV; for Turnover number Go 10 μg/ml: 10 μg/ml amine; for Turnover number Go 100 μg/ml: 100 μg/ml amine; for Go ef. (apparent efficacy, maximum turnover number of GTPase activity): Table VI, receptor-based peptides; for stimulation of GTPase activity: at higher concentrations, G protein not named in the sentence (Gi and Go tested)
T1 construct: proteins were extracted from bovine cerebral cortical membranes; from tissue; host or cells: bovine brain (cerebral cortical membranes)
Excerpt: (§1) G proteins were reconstituted into phospholipid vesicles composed of dioleoyl-PC/bovine brain PS/1-palmitoyl,2-oleoyl-PE (3:4:3) as reported previously by Higashijima et al., 1988, incorporated herein by reference.

[2] = test system: Gi; assay: steady state GTPase activity of Gi in phospholipid vesicles; format: biochemical, rabbit; conditions: for GTPase Gi 10 μM: 10 μM peptide; for GTPase Gi 10 μM / GTPase Gi 100 μM / Turnover number Gi 10 μg/ml / Turnover number Gi 100 μg/ml: 30 min at 30° C.; for GTPase Gi 10 μM / GTPase Gi 100 μM: PE/PC/PS vesicles; for GTPase Gi 100 μM: 100 μM peptide; for Turnover number Gi 10 μg/ml: 10 μg/ml amine; for Turnover number Gi 100 μg/ml: 100 μg/ml amine;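 on all read-outs here: Steady-state GTP hydrolysis by Gi measured in a detergent-free buffer containing 1.1 mM MgSO4 plus the specified guanine nucleotide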
Protocol: as §1
The concentration of free Mg^2+ in assay medium that contains 5 mM EDTA and no added Mg^2+ is estimated to be 0.1-0.2 nM according to Brandt et al., 1988 and 1983.

[3] = target: Gs (Homo sapiens, UniProt P63092); assay: steady state GTPase activity of Gs; format: biochemical
Protocol: Methods for the assay of steady state GTP hydrolysis and GTPγS binding have been described previously by Higashijima, 1987, and Ferguson, 1986, and incorporated herein by reference. Unless noted otherwise, assays of steady state GTP hydrolysis and of the binding and dissociation of guanine nucleotides were carried out in the buffer described previously, but without detergent and with 1.1 mM MgSO4 and the nucleotide specified in the text. When necessary, the concentration of free Mg^2+ was adjusted using EDTA buffers as described previously by Higashijima, 1987, and incorporated herein by reference.
The data set forth in the following tables represent data generated by the inventors employing the steady state GTP hydrolysis, expressed as molar turnover numbers, are described herein under the "Assay" section of the Experimental Procedures in Example 1. The data has been classified according to the criteria outlined below and the effects of each peptide and modified variant on Go, Gi, and Gs have been tabulated. Table III below sets forth data generated for various mastoparan analogues designed by the inventors, in comparison with the various naturally-occurring mastoparans (e.g., MP, MP-A and MP-T). Table IV sets forth similar data generated for various receptor-based peptides designed by the inventors based on a consideration of various G-protein linked receptors.
Apparent affinity (af.) and apparent efficacy (ef.) were estimated by EC50 and maximum turnover number of GTPase activity.

[4] = Table IV, read-out: G1 af. (apparent affinity, estimated by EC50 of GTPase activity)
[5] = Table VI, receptor-based peptides
[6] = Table VI, receptor-based peptides, read-out: Gi af. (apparent affinity, estimated by EC50 of GTPase activity)

T1 sequence (P08239 2-354 limits assumed): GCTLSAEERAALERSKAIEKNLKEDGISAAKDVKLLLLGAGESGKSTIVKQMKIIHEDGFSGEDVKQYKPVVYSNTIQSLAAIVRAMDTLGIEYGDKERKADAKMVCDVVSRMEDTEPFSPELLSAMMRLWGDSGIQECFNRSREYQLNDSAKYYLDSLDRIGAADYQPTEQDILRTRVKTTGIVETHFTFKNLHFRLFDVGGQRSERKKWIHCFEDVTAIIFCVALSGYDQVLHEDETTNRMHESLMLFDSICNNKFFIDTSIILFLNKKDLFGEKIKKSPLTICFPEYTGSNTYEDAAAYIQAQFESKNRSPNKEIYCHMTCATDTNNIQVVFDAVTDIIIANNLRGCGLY
T1 sequence (P62871 2-340 partner limits assumed): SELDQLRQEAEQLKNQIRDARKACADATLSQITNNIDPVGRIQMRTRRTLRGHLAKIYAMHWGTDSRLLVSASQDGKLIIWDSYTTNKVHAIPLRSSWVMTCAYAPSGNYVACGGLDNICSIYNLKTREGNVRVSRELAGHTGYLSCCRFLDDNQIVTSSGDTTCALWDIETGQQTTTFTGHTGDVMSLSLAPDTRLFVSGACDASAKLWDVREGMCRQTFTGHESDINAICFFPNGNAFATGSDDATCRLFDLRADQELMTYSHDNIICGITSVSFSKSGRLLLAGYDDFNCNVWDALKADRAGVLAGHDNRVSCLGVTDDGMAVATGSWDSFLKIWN
T1 sequence (P63212 2-68 partner limits assumed): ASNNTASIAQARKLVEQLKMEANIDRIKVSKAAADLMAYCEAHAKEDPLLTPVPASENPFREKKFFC
Sequence of Gs (P63092 whole entry): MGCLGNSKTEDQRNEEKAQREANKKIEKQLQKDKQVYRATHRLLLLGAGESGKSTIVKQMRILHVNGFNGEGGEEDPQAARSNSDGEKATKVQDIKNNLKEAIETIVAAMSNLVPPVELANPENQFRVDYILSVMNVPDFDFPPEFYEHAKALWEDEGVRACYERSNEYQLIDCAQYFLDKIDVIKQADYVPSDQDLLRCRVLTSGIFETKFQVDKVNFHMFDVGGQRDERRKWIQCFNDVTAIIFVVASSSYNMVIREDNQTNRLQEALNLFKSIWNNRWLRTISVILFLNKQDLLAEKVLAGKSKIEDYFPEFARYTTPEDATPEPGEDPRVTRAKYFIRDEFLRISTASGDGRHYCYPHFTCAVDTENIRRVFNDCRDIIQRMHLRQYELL

## CC[C@H](C)[C@H](NC(=O)CN)C(=O)NCC(=O)N[C@@H](C)C(=O)N[C@H](C(=O)N[C@@H](CC(C)C)C(=O)N[C@@H](CCCCN)C(=O)N[C@H](C(=O)N[C@@H](CC(C)C)C(=O)N[C@H](C(=O)N[C@H](C(=O)NCC(=O)N[C@@H](CC(C)C)C(=O)N1CCC[C@H]1C(=O)N[C@@H](C)C(=O)N[C@@H](CC(C)C)C(=O)N[C@H](C(=O)N[C@@H](CO)C(=O)N[C@@H](Cc1c[nH]c2ccccc12)C(=O)N[C@H](C(=O)N[C@@H](CCCCN)C(=O)N[C@@H](CCCNC(=N)N)C(=O)N[C@@H](CCCCN)C(=O)N[C@@H](CCCNC(=N)N)C(=O)N[C@@H](CCC(N)=O)C(=O)N[C@@H](CCC(N)=O)C(N)=O)[C@@H](C)CC)[C@@H](C)CC)[C@@H](C)O)[C@@H](C)O)C(C)C)C(C)C [Melittin, reference compound]
[1]
  GTPase Go 10 μM: 0.63 min⁻¹
  GTPase Go 100 μM: 0.56 min⁻¹
[1]; GTPase
  ability to activate Gi and Go (in words): potency and efficacy roughly equivalent to that of mastoparan
[2]
  GTPase Gi 10 μM: 0,37 min^-1
  GTPase Gi 100 μM: 0.40 min⁻¹

## luteinizing hormone releasing hormone [LHRH, reference compound]
[1]
  GTPase Go 100 μM: 0.04 min⁻¹
[2]
  GTPase Gi 100 μM: 0.03 min⁻¹

## CC[C@H](C)[C@H](NC(=O)[C@H](CCCNC(=N)N)NC(=O)[C@H](Cc1ccc(O)cc1)NC(=O)[C@H](CC(C)C)NC(=O)[C@H](CC(C)C)NC(=O)[C@H](CC(C)C)NC(=O)[C@@H](NC(=O)[C@H](CC(C)C)NC(=O)[C@@H](NC(=O)[C@H](CC(C)C)NC(=O)[C@H](CC(C)C)NC(=O)[C@@H](NC(=O)[C@H](C)NC(=O)[C@@H](NC(=O)[C@H](CC(C)C)NC(C)=O)[C@@H](C)O)C(C)C)[C@@H](C)O)[C@@H](C)O)C(=O)N[C@@H](CC(N)=O)C(=O)N[C@@H](CC(C)C)C(=O)N[C@@H](CCCCN)C(=O)N[C@@H](C)C(=O)N[C@@H](CC(C)C)C(=O)N[C@@H](C)C(=O)N[C@@H](C)C(=O)N[C@@H](CC(C)C)C(=O)N[C@@H](C)C(=O)N[C@@H](CCCCN)C(=O)N[C@@H](C)C(=O)N[C@@H](CC(C)C)C(=O)N[C@@H](CC(C)C)C(N)=O [ER26]
[3]; Table IV
  Gs ef. (apparent efficacy, maximum turnover number of GTPase activity): F (Fair (F): 2-5 fold)
[1]
  Goo ef. (apparent efficacy, maximum turnover number of GTPase activity): F (Fair (F): 2-5 fold)
[2]; Table IV
  G1 ef. (apparent efficacy, maximum turnover number of GTPase activity): G (Good (G): 5-10 fold)
[2]; [4]
  EC50: 3 to 10 µM

## CCCCCCCCCCCCCCCC[N+](C)(C)Cc1ccccc1.[Cl-] [BAC (C16 ), reference compound]
[1]
  Turnover number Go 10 μg/ml: 1.4 min⁻¹
  Turnover number Go 100 μg/ml: 0.08 min⁻¹
[2]
  Turnover number Gi 10 μg/ml: 0.04 min⁻¹
  Turnover number Gi 100 μg/ml: < 0.01 min⁻¹

## Ac-WKKLLKLLKKLLKL-NH2 [CBP6, reference compound]
[1]
  GTPase Go 10 μM: 0.76 min⁻¹
  GTPase Go 100 μM: 0.38 min⁻¹
[1]; GTPase
  ability to activate Gi and Go (in words): quite active
[2]
  GTPase Gi 10 μM: 0.51 min⁻¹
  GTPase Gi 100 μM: 0.06 min⁻¹

## CPFRYQSLNTRARAKVI-NH2 [ER39]
[3]; [5]
  Gs ef. (apparent efficacy, maximum turnover number of GTPase activity): F (Fair (F): 2-5 fold)
[1]
  Go ef. (apparent efficacy, maximum turnover number of GTPase activity): F (Fair (F): 2-5 fold)
[2]; [5]
  Gi ef. (apparent efficacy, maximum turnover number of GTPase activity): P (Poor (P): less than 2 fold)
[2]; [6]
  EC50: > 100 µM

## RPPGFSPFR [Bradykinin, reference compound]
[1]
  GTPase Go 100 μM: 0.05 min⁻¹
[2]
  GTPase Gi 100 μM: 0.03 min⁻¹

## Dynorphin [reference compound]
[1]
  GTPase Go 10 μM: 0.13 min⁻¹
  GTPase Go 100 μM: 0.33 min⁻¹
[1]; GTPase
  ability to activate Gi and Go (in words): somewhat stimulatory
[2]
  GTPase Gi 100 μM: 0.10 min⁻¹

## CCCCCCCCCCCCCCCCCC[N+](C)(C)C.[Cl-] [C18 Me3 NCl, reference compound]
[1]
  Turnover number Go 10 μg/ml: 0.61 min⁻¹
  Turnover number Go 100 μg/ml: < 0.01 min⁻¹
[2]
  Turnover number Gi 10 μg/ml: 0.04 min⁻¹
  Turnover number Gi 100 μg/ml: < 0.01 min⁻¹

## CCCCCCCCCCCCCCCCSC[C@H](NC(=O)[C@H](CC(C)C)NC(=O)[C@H](C)NC(=O)[C@H](CCCCN)NC(=O)[C@H](C)NC(=O)[C@H](CC(C)C)NC(=O)[C@H](C)NC(=O)[C@H](C)NC(=O)[C@H](CC(C)C)NC(=O)[C@H](C)NC(=O)[C@H](CCCCN)NC(=O)[C@H](Cc1ccc(O)cc1)NC(=O)[C@H](CC(N)=O)NC(=O)[C@@H](N)[C@@H](C)CC)C(N)=O [C16-ER17] (H-INYKALAALAKALC(X1)-NH2; N-terminus assumed)
[3]; Table IV
  Gs ef. (apparent efficacy, maximum turnover number of GTPase activity): F (Fair (F): 2-5 fold)
[1]
  Goo ef. (apparent efficacy, maximum turnover number of GTPase activity): E (Excellent (E): 30-10 fold)
[2]; Table IV
  G1 ef. (apparent efficacy, maximum turnover number of GTPase activity): E (Excellent (E): 30-10 fold)
[2]; [4]
  EC50: < 3 µM

## CCCC[N+](CCCC)(CCCC)Cc1ccccc1.[Cl-] [BzBu3 NCl, reference compound]
[1]
  Turnover number Go 10 μg/ml: 0.07 min⁻¹
  Turnover number Go 100 μg/ml: 0.07 min⁻¹
[2]
  Turnover number Gi 10 μg/ml: 0.04 min⁻¹
  Turnover number Gi 100 μg/ml: 0.04 min⁻¹

## [D-Ala^2 ]Leu-enkephalin [DALE, reference compound]
[1]
  GTPase Go 100 μM: 0.06 min⁻¹
[2]
  GTPase Gi 100 μM: 0.02 min⁻¹

## CCCCCCCCCCCCCCCCCC[N+](C)(C)Cc1ccccc1.[Cl-] [BAC (C18 ), reference compound]
[1]
  Turnover number Go 10 μg/ml: 1.1 min⁻¹
  Turnover number Go 100 μg/ml: 0.3 min⁻¹
[2]
  Turnover number Gi 10 μg/ml: 0.03 min⁻¹
  Turnover number Gi 100 μg/ml: < 0.01 min⁻¹

## Angiotensin II (DRVYIHPF; Angiotensin-2; UniProt P01019 25-32, looked up) [reference compound]
[1]
  GTPase Go 100 μM: 0.31 min⁻¹
  stimulation of GTPase activity: more than 3 fold
[2]
  GTPase Gi 100 μM: 0.23 min⁻¹

## Melanostatin [reference compound]
[1]
  GTPase Go 100 μM: 0.05 min⁻¹
[2]
  GTPase Gi 100 μM: 0.03 min⁻¹

## Substance P [reference compound]
[1]
  GTPase Go 100 μM: 0.25 min⁻¹
[1]; GTPase, Table II
  stimulation of Go: more than 4 fold
[2]
  GTPase Gi 100 μM: 0.09 min⁻¹
[2]; GTPase, Table II
  stimulation of Gi: more than 4 fold

## CCCCCCCCCCCCCC[N+](C)(C)Cc1ccccc1.[Cl-] [BAC (C14), reference compound]
[1]
  Turnover number Go 10 μg/ml: 0.9 min⁻¹
  Turnover number Go 100 μg/ml: 0.2 min⁻¹
[2]
  Turnover number Gi 10 μg/ml: 0.04 min⁻¹
  Turnover number Gi 100 μg/ml: < 0.01 min⁻¹

## CCCCCCCCCCCCSC[C@H](N)C(=O)N1CCC[C@H]1C(=O)N[C@@H](Cc1ccccc1)C(=O)N[C@@H](CCCNC(=N)N)C(=O)N[C@@H](Cc1ccc(O)cc1)C(=O)N[C@@H](CCC(N)=O)C(=O)N[C@@H](CO)C(=O)N[C@@H](CC(C)C)C(=O)N[C@@H](CCSC)C(=O)N[C@H](C(=O)N[C@@H](CCCNC(=N)N)C(=O)N[C@@H](C)C(=O)N[C@@H](CCCNC(=N)N)C(=O)N[C@@H](C)C(=O)N[C@@H](CCCCN)C(=O)N[C@H](C(=O)N[C@H](C(N)=O)[C@@H](C)CC)C(C)C)[C@@H](C)O [C12-ER39] (H-C(Dodecyl)PFRYQSLMTRARAKVI-NH2; N-terminus assumed)
[3]; [5]
  Gs ef. (apparent efficacy, maximum turnover number of GTPase activity): F (Fair (F): 2-5 fold)
[1]
  Go ef. (apparent efficacy, maximum turnover number of GTPase activity): G (Good (G): 5-10 fold)
[2]; [5]
  Gi ef. (apparent efficacy, maximum turnover number of GTPase activity): G (Good (G): 5-10 fold)
[2]; [6]
  EC50: 3 to 10 µM

## CCCCCCCCCCCC[N+](C)(C)C.[Cl-] [C12 Me3 NCl, reference compound]
[1]
  Turnover number Go 10 μg/ml: 0.1 min⁻¹
  Turnover number Go 100 μg/ml: 0.5 min⁻¹
[2]
  Turnover number Gi 10 μg/ml: 0.04 min⁻¹
  Turnover number Gi 100 μg/ml: 0.04 min⁻¹

## NC(=O)[C@@H]1CCCN1C(=O)[C@H](Cc1cnc[nH]1)NC(=O)[C@@H]1CCC(=O)N1 [TRH, thyrotropin releasing hormone, reference compound]
[1]
  GTPase Go 100 μM: 0.06 min⁻¹
[2]
  GTPase Gi 100 μM: 0.03 min⁻¹

## Calcitonin [reference compound]
[1]
  GTPase Go 100 μM: 0.09 min⁻¹
[2]
  GTPase Gi 100 μM: 0.01 min⁻¹

## CCCCCCCCCCCCN [C12 NH3 Cl, dodecylamine]
[1]
  Turnover number Go 10 μg/ml: 0.18 min⁻¹
  Turnover number Go 100 μg/ml: 0.61 min⁻¹
[2]
  Turnover number Gi 10 μg/ml: 0.06 min⁻¹
  Turnover number Gi 100 μg/ml: 0.31 min⁻¹
[2]; Table III
  stimulation of Gi by amines (in words): stimulated Gi significantly

## Gramicidin S [reference compound]
[1]
  GTPase Go 10 μM: 0.17 min⁻¹
  GTPase Go 100 μM: 0.47 min⁻¹
[1]; GTPase
  ability to activate Gi and Go (in words): somewhat stimulatory
[2]
  GTPase Gi 10 μM: 0.13 min⁻¹
  GTPase Gi 100 μM: 0.31 min⁻¹

## INYKALAALAKALC-NH2 [ER17]
[3]; Table IV, read-out: Gs af. (apparent affinity, estimated by EC50 of GTPase activity)
  EC50: 10 to 30 µM
[1]
  EC50: 3 to 10 µM

## α-Mating factor [reference compound]
[1]
  GTPase Go 100 μM: 0.19 min⁻¹
  stimulation of GTPase activity: more than 3 fold
[2]
  GTPase Gi 100 μM: 0.05 min⁻¹
